Values joined by “and” are separate entries in the source; they are usually repeats but may differ in a detail not shown here. Identical values can stand only once.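 Exposure lasted 48 hours, with cells grown in 96-well plates and compounds tested at five concentrations. GI50: concentration for 50% inhibition of growth. TGI is the concentration that stops growth completely.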 A value given as a limit tells only on which side of the number the result lay.

Some test systems named below: EKVX NSCLC; SK-MEL-5 melanoma; UO-31 renal; UACC-62 melanoma; RPMI-8226 leukemia; SF-539 CNS; MCF7 breast; HL-60(TB) leukemia; MDA-MB-231 breast; MALME-3M melanoma.
Common to all, as to test: growth of human tumour cells (NCI), 48 h

Regarding `COc1ccc(OC)c(-c2cc(-c3ccc(Cl)cc3)nn2-c2ccccc2)c1`, the GI50 in the experiment with EKVX NSCLC is 82.8 µM; in the experiment on SK-MEL-5 melanoma, 42.2 µM; with UO-31 renal, greater than 100 µM; in the experiment with UACC-62 melanoma, 11.2 µM; with RPMI-8226 leukemia, 3.29 µM; with SF-539 CNS, 36 µM. Besides, the GI50 in the experiment with MCF7 breast was 6.89 µM; in the experiment on HL-60(TB) leukemia, 35.9 µM; in the experiment on MDA-MB-231 breast, 17.8 µM. In addition, the TGI in the experiment with EKVX NSCLC was greater than 100 µM; in the experiment on SK-MEL-5 melanoma, greater than 100 µM; in the experiment with UO-31 renal it was greater than 100 µM; in the experiment on UACC-62 melanoma, 55.3 µM; in the experiment on RPMI-8226 leukemia, 26.5 µM; in the experiment with SF-539 CNS it was 95.2 µM. In addition, the TGI is greater than 100 µM in the experiment with MCF7 breast, greater than 100 µM in the experiment on HL-60(TB) leukemia and 80 µM with MDA-MB-231 breast.
Turning to `Cc1ccc(S(=O)(=O)NC(Cc2ccccc2)C(=O)CCl)cc1` (configuration not stated), the TGI with MALME-3M melanoma came to 27.8 µM; in the experiment on EKVX NSCLC it was 34.4 µM; in the experiment with SK-MEL-5 melanoma, 25 µM; in the experiment with UO-31 renal it was 27 µM; with UACC-62 melanoma, 26.4 µM; with SF-539 CNS it was 30.4 µM. For the same compound, the TGI in the experiment with MCF7 breast was 24.5 µM; in the experiment with HL-60(TB) leukemia it was greater than 100 µM; in the experiment with MDA-MB-231 breast, 27.3 µM.
Regarding `N#Cc1c(N)c(C(=O)c2ccc3c(c2)OCCO3)n2c1CCCC2`, the GI50 with MALME-3M melanoma was 2.6 µM; in the experiment on SK-MEL-5 melanoma, 3.32 µM; with UO-31 renal, 6.3 µM; in the experiment on UACC-62 melanoma it was 5.99 µM; in the experiment with RPMI-8226 leukemia, 3.93 µM; with SF-539 CNS, 2.38 µM. The GI50 in the experiment on MCF7 breast was 2.28 µM; with HL-60(TB) leukemia it was 2.8 µM; in the experiment with MDA-MB-231 breast it was 6.47 µM. The TGI in the experiment on MALME-3M melanoma is greater than 100 µM; with SK-MEL-5 melanoma, greater than 100 µM; with UO-31 renal it was greater than 100 µM; with UACC-62 melanoma, greater than 100 µM; with RPMI-8226 leukemia it was greater than 100 µM; in the experiment on SF-539 CNS, 7.63 µM. The TGI in the experiment on MCF7 breast is greater than 100 µM; in the experiment on HL-60(TB) leukemia, greater than 27 µM; with MDA-MB-231 breast, greater than 100 µM.
Regarding `CCOc1ccc(Nc2ccnc3cc(Cl)ccc23)cc1`, the GI50 in the experiment on MALME-3M melanoma was greater than 100 µM; with SK-MEL-5 melanoma, greater than 100 µM; in the experiment with UO-31 renal it was greater than 100 µM; with UACC-62 melanoma, greater than 100 µM; in the experiment with RPMI-8226 leukemia, greater than 100 µM; in the experiment with SF-539 CNS, 29.4 µM. Further, the GI50 in the experiment on MCF7 breast was 34.5 µM; in the experiment with HL-60(TB) leukemia it was greater than 100 µM; in the experiment with MDA-MB-231 breast, greater than 100 µM. Further, the TGI in the experiment on MALME-3M melanoma, in the experiment on SK-MEL-5 melanoma, with UO-31 renal, in the experiment with UACC-62 melanoma, in the experiment with RPMI-8226 leukemia and with SF-539 CNS was greater than 100 µM each time. Further, the TGI in the experiment with MCF7 breast, in the experiment on HL-60(TB) leukemia and in the experiment on MDA-MB-231 breast was greater than 100 µM in each case.
On to `O=c1cccccc1O`, for which the TGI with MALME-3M melanoma, in the experiment with EKVX NSCLC, in the experiment on SK-MEL-5 melanoma, in the experiment with UO-31 renal, with UACC-62 melanoma and in the experiment on RPMI-8226 leukemia was greater than 100 µM in each case. For the same compound, the TGI in the experiment with MCF7 breast is greater than 100 µM; with HL-60(TB) leukemia it was 43.7 µM; in the experiment on MDA-MB-231 breast it was greater than 100 µM.
In the case of `C/C(COc1ccc2oc(-c3ccccc3)cc(=O)c2c1)=N\O`, the GI50 was 2.89 µM with EKVX NSCLC; 11.2 µM with UO-31 renal; 16.8 µM in the experiment with UACC-62 melanoma; 22.3 µM in the experiment with RPMI-8226 leukemia; 2.1 µM with SF-539 CNS; 10.1 µM in the experiment on MCF7 breast. Moreover, the GI50 with HL-60(TB) leukemia is 74.5 µM; in the experiment with MDA-MB-231 breast, 14.1 µM. Besides, the TGI in the experiment on EKVX NSCLC was 26.6 µM; with UO-31 renal, greater than 100 µM; with UACC-62 melanoma, 81.4 µM; in the experiment with RPMI-8226 leukemia, 62.3 µM; in the experiment on SF-539 CNS it was 5.8 µM; with MCF7 breast it was 36.7 µM. For the same compound, the TGI was greater than 100 µM in the experiment with HL-60(TB) leukemia and 36.4 µM in the experiment on MDA-MB-231 breast.
`Cc1cc(C)c([I+]c2c(C)cc(C)cc2C)c(C)c1`: the GI50 is 0.37 µM with MALME-3M melanoma; 0.201 µM in the experiment on SK-MEL-5 melanoma; 1.57 µM in the experiment with UO-31 renal; 0.339 µM in the experiment on UACC-62 melanoma; 0.891 µM in the experiment on SF-539 CNS; 0.325 µM in the experiment on MCF7 breast. Besides, in the experiment on MDA-MB-231 breast, the GI50 is 0.371 µM. For the same compound, the TGI in the experiment on MALME-3M melanoma is 1.46 µM; with SK-MEL-5 melanoma, 0.476 µM; with UO-31 renal, 3.7 µM; in the experiment on UACC-62 melanoma, 1.5 µM; in the experiment on SF-539 CNS, 2.16 µM; with MCF7 breast, 1.46 µM. The compound also displayed a TGI in the experiment on MDA-MB-231 breast of 1.38 µM.
Turning to `Oc1cccc2cccnc12`, the TGI with MALME-3M melanoma was greater than 100 µM; in the experiment on EKVX NSCLC, greater than 100 µM; in the experiment on SK-MEL-5 melanoma, 36.7 µM and 45.2 µM and > 71.7 µM; in the experiment with UO-31 renal it was greater than 100 µM; in the experiment with UACC-62 melanoma, 26.8 µM and > 100 µM; with RPMI-8226 leukemia, 1.07 µM and 4.31 µM. The TGI was 54.1 µM and 81.1 µM and > 100 µM with SF-539 CNS; 5.05 µM and > 31.6 µM in the experiment with MCF7 breast; > 28.7 µM and 84 µM and 33.1 µM with MDA-MB-231 breast. For the same compound, the GI50 is 0.2 µM with RPMI-8226 leukemia; 4.56 µM and 26.9 µM and 4.11 µM with SF-539 CNS; 1.72 µM and 3.31 µM with MCF7 breast.
`FC(F)(F)c1cccc(Oc2ccc(Nc3ncnc4ccc(OCCCN5CCOCC5)cc34)cc2Cl)c1`: the GI50 in the experiment with MALME-3M melanoma is 1.6 µM; with EKVX NSCLC, 0.872 µM; in the experiment on SK-MEL-5 melanoma, 1.75 µM; with UO-31 renal, 1.19 µM; in the experiment with UACC-62 melanoma, 1.7 µM; with SF-539 CNS, 1.86 µM. In addition, the GI50 in the experiment on MCF7 breast was 1.74 µM; with HL-60(TB) leukemia it was 2.03 µM; in the experiment on MDA-MB-231 breast it was 1.8 µM. Also, the TGI stood at 3.07 µM with MALME-3M melanoma; 8.47 µM with EKVX NSCLC; 3.15 µM in the experiment with SK-MEL-5 melanoma; 2.5 µM in the experiment with UO-31 renal; 3.13 µM in the experiment on UACC-62 melanoma; 3.33 µM with SF-539 CNS. The TGI with MCF7 breast was 5.17 µM; with HL-60(TB) leukemia, 4.88 µM; in the experiment with MDA-MB-231 breast it was 3.72 µM.

Values taken from PubChem BioAssay (NCI).
